In paper PMC12621202, “RTx-303, an Orally Bioavailable Polθ Polymerase Inhibitor That Potentiates PARP Inhibitors in BRCA Mutant Tumors” (Journal of Medicinal Chemistry, 2025):
“And” between values parts separate entries of the source, which are not always exact repeats. Equal values may be shown once. Read-outs that look alike come from different tables or passages of the source.

Assays:
[1] = system: BRCA2^+/+ HCT116; test: Clonogenic (colony) survival assay; type: cell-based; conditions: Homo sapiens
Method: Colony survival assays were performed on 24-well plates. 800 cells/well of HCT, DLD1- BRCA2 −/–, PALB2 −/–, MEF BRCA1 […], PEO1, SNU-601, SKOV3- BRCA2 −/–, OVCAR8 cells and 200 cells/well of HCT, DLD1, MEF, SKOV3 wildtype cells were plated. For MDA pair, 500 cells/well of MDA436 and 100 cells of MDA231 were plated. Cells were treated with the compound 24 h after plating and the medium was replaced every two or 3 days until the colonies were ready for staining. Colonies were typically ready for staining in 10–12 days. For staining: Medium was removed from plates, and cells were rinsed with PBS. Fixation was carried out with Water:Ethanol:Acetic acid (5:4:1) for 30 min followed by staining of colonies with 0.5% crystal violet in Water:Ethanol (3:2) for 2 h at room temperature. The plates were rinsed with water and left for drying overnight at room temperature. Colonies were then counted manually, and response curves are shown as mean colony formation ± SEM. IC50 was calculated with GraphPad Prism using nonlinear regression analysis, inhibitor vs response (variable slope) equation.

[2] = Liver microsome stability; type: in vitro ADME
Method: Liver microsome membranes stability assay. Assays were conducted in 96-well (1 mL) polypropylene plates. In duplicate, test compounds (1 μM) were incubated in 0.5 mL of 100 mM potassium phosphate buffer (pH 7.4) with 0.5 mg/mL pooled liver microsomes from the test species (Gibco; mouse, CD1, male, MSMCPL; rat, Sprague-Dawley, male, RTMCPL; dog, Beagle, male, DGMCPL; human, mixed gender, HMMCPL), 2 mM tetrasodium NADPH and 3 mM MgCl2 for 60 min in a Labnet Vortemp incubator at 37 °C with gentle shaking. At five time points, […] of reaction mixtures were transferred to a 96-shallow-well stop plate on ice containing […] acetonitrile with 0.05 mM propafenone (internal standard). […] Verapamil was the positive reference compound (typical T1/2 = 3 min). Standard curves for test compounds were generated using 5 concentrations in duplicate. Stop plates were centrifuged at 2270 × g for 10 min and […] of the supernatants were transferred to a Waters Acquity UPLC […] 96-well sample plate, sealed with a cap mat and analyzed by UPLC/MS as described. GraphPad Prism v 5.04 was used for nonlinear fitting of time course data to generate T1/2 (min) and in vitro Clint (μL/min/mg) values.

[3] = Hepatocyte stability; type: in vitro ADME; conditions: cryopreserved hepatocytes
Method: Hepatocyte stability assays. Cryopreserved mouse hepatocytes (24 donors, male CD1 mice; Xenotech product M1000.H15+) or human hepatocytes (100 donors; mixed gender; Xenotech product HCP100.H15) were rapidly thawed, diluted with Optithaw (Xenotech product K8500) and centrifuged 5 min at 100 × g. The resuspended cells were stained with 0.016% Trypan Blue and counted. Cell viability was >80%. 0.25 mL of a 1 × 10^6 viable cells/ml cell suspension was added to 16 mm diameter wells of an uncoated polystyrene plate. The prewarmed plate was placed in a 37 °C incubator with 5% CO2 atm with 100 oscillations/min shaking. After 5 min, 0.25 mL of 2 μM test compound in prewarmed HBSS was added per well and mixed to start the reactions with duplicate reactions per compound. Verapamil as the positive control and cell-free reactions were negative controls. At each time point (0, 2, 5, 10, 30, 60, and 120 min), 50 μL aliquots were transferred to a 96-well stop plate containing 150 μL/well of acetonitrile, 0.1% formic acid and 0.1 μM propafenone. The plate was centrifuged for 10 min at 2300 × g. 150 μL of the supernatant was transferred to a mass spect sample plate. Samples were analyzed by UPLC/MS as described. Results were expressed as T1/2 (min) and in vitro Clint (μL/min/10^6 cells). CLint (μL/min/10^6 cells) estimates were determined using a modified method of McGinnity et al.

[4] = Pharmacokinetics in CD-1 mice; type: in vivo; conditions: for bioavailability / Cmax / Tmax / AUC(0-t) / half-life: male, mouse, plasma; for AUC(0-t): read-out: AUClast (PO); for half-life: read-out: T1/2 (PO) (converted)
Method: For the pharmacokinetics study, CD-1 male mice (6–8 weeks) were dosed by IV or PO at the indicated concentrations of the indicated compounds dissolved in 5% DMSO, 5% ethanol, 20% TPGS, 30% PEG400, 40% water. Plasma samples were collected at the indicated time points and the indicated compound levels were determined by using standard protocols with a calibration curve and LC/MS. The pharmacokinetic studies was carried out by Pharmaron.

[5] = Stability in PBS, simulated gastric fluid and simulated intestinal fluid; type: in vitro ADME; conditions: for stability in simulated intestinal and gastric fluids, plasma and PBS buffer: statement in words covering all four matrices
Method: Stability in PBS, SGF (simulated gastric fluid) and SIF (simulated intestinal fluid) assays. The stability of test compounds was determined in Dulbecco’s PBS (control solution; pH = 7.4; 136.9 mM NaCl; 2.68 mM KCl; 8.1 mM Na2HPO4; 1.47 mM KH2PO4; 0.9 mM CaCl2 and MgCl2, US Pharmacopeia, defined (US Pharmacopoeia 33–28NF; 2010) Simulated Gastric Fluid (SGF; 0.2% NaCl, 84 mM HCl, pH 1.2 with 3.2 mg/mL pepsin from porcine gastric mucosa), or US Pharmacopoeia-defined Simulated Intestinal Fluid (SIF; 50 mM potassium phosphate, pH 6.8; with 10 mg/mL pancreatin from porcine pancreas). Reactions were conducted in 96-well deep-well (1 mL) polypropylene plates in duplicate. 540 μL of prewarmed 1.11× PBS, SGF or SIF was added to wells of the prewarmed plate in the Labnet Vortemp incubator at 37 °C. Reactions were initiated by adding 60 μL of a 50 μM test compound in water (final concentration of 5 μM) to test wells. Samples were mixed and incubated with gentle shaking. At 0, 30, 90, 210 min, 75 μL aliquots were transferred to a stop plate (96-well plate with 300 μL of ACN:water 1:1 with 0.05 μM propafenone) on ice. After all time points, the stop plate was centrifuged 10 min at 2270 × g in a Beckman Coulter Allegra 6R centrifuge and 170 μL of the supernatants were transferred to a Waters Acquity UPLC 700 μL 96-well sample plate and sealed with a cap mat. After centrifugation (10 min; 4000 × g), supernatants were analyzed by LC/MS as described. Standard curves (0–1000 nM) were generated in PBS and plasma. Data were fit to a one-phase decay equation using GraphPad Prism 5.04 to generate T1/2 values.

[6] = HCT-116, read-out: IC50 BRCA2^+/+ HCT116 (μM)
[7] = both sexes, pH 7.4, human liver microsomes, read-out: T1/2 human liver microsomes
[8] = male, Beagle, pH 7.4, dog liver microsomes, read-out: T1/2 dog liver microsomes
[9] = male, CD1, pH 7.4, mouse liver microsomes, read-out: T1/2 mouse liver microsomes
[10] = male, Sprague-Dawley, pH 7.4, rat liver microsomes, read-out: T1/2 rat liver microsomes
[11] = mouse (CD1, male) hepatocytes, read-out: T1/2 mouse hepatocytes
[12] = Dulbecco's PBS, pH 7.4, read-out: T1/2 PBS
[13] = simulated gastric fluid (SGF) with pepsin, pH 1.2, read-out: T1/2 simulated gastric fluid
[14] = simulated intestinal fluid (SIF) with pancreatin, pH 6.8, read-out: T1/2 simulated intestinal fluid
[15] = both sexes, pH 7.4, human liver microsomes, read-out: Clint (uL/min/ mg) human
[16] = male, CD1, pH 7.4, mouse liver microsomes, read-out: Clint (uL/min /mg) mouse
[17] = both sexes, human hepatocytes, mixed gender, read-out: Human* (T1/2 min)

| Compound | IC50 [1, 6] [µM] | half-life at 1 μM [2, 7] [min] | half-life at 1 μM [2, 8] [min] | half-life at 1 μM [2, 9] [min] | half-life at 1 μM [2, 10] [min] | half-life at 1 μM [3, 11] [min] | bioavailability ([4]; 5 mg/kg IV, 15 mg/kg PO (n=3)) | Cmax ([4]; 15 mg/kg PO (n=3)) [ng/mL] | Tmax ([4]; 15 mg/kg PO (n=3)) [min] | AUC(0-t) ([4]; 15 mg/kg PO (n=3)) [ng·h/mL] | half-life ([4]; 15 mg/kg PO (n=3)) [min] | half-life at 5 μM [5, 12] [min] | half-life at 5 μM [5, 13] [min] | half-life at 5 μM [5, 14] [min] | bioavailability ([4]; 15 mg/kg IV, 50 mg/kg PO (n=3)) | Cmax ([4]; 50 mg/kg PO (n=3)) [ng/mL] | Tmax ([4]; 50 mg/kg PO (n=3)) [min] | AUC(0-t) ([4]; 50 mg/kg PO (n=3)) [ng·h/mL] | half-life ([4]; 50 mg/kg PO (n=3)) [min] | microsomal CLint at 1 μM [2, 15] [µL/min/mg] | further results |
| --- | --- | --- | --- | --- | --- | --- | --- | --- | --- | --- | --- | --- | --- | --- | --- | --- | --- | --- | --- | --- | --- |
| [2H]C([2H])([2H])N(C(=O)Oc1c(N2CCN(CC(O)CNC)C2=O)cc(C(F)(F)F)cc1C(F)(F)F)c1ccc(F)cc1 (stereo not drawn) [RTx-283, 2-(3-(2-Hydroxy-3-(methylamino)propyl)-2-oxoimidazolidin-1-yl)-4,6-bis(trifluoromethyl)phenyl (4-fluorophenyl)(methyl-d3)carbamate] | 16.3 | > 56 | 24.4 | 44.8 | > 60 | 48.8 | 44.3% | 453 | 30 | 2370 | 269 | > 180 | > 180 | > 180 | – | – | – | – | – | – | – |
| [2H]C([2H])([2H])N(C(=O)Oc1c(N2CCN(CC(O)CN(C)C)C2=O)cc(C(F)(F)F)cc1C(F)(F)F)c1ccc(F)cc1 (stereo not drawn) [RTx-284, 2-{3-[3-(Dimethylamino)-2-hydroxypropyl]-2-oxoimidazolidin-1-yl}-4,6-bis(trifluoromethyl)phenyl N-(4-fluorophenyl)-N-(methyl-d3)-carbamate] | > 12 | 15.2 | 7.4 | 8 | > 54 | 19.2 | 100% and 103% | 659 | 79.8 | 5930 | 146 | > 180 | > 180 | > 180 | 99% | 2750 | 120 | 30700 | 199 | – | – |
| [2H]C([2H])([2H])N(C(=O)Oc1c(N2CCN(C[C@H](O)CN(C)C)C2=O)cc(C(F)(F)F)cc1C(F)(F)F)c1ccc(F)cc1 [RTx-303] | – | 7.3 | – | 7.1 | – | 24.7 | – | – | – | – | – | – | – | – | 88% and 88.1% | 2640 | 198 | 30200 | 156 | 213 | IC50 ([1]; HCT-116, read-out: IC50(nM) HCT116 BRCA2 +/+): > 1.28 µM; microsomal CLint at 1 μM [2, 16]: 204 µL/min/mg; half-life at 1 μM [3, 17]: 60 min; Avg. free unbound exposure ([4]; parent compound, 50 mg/kg PO (n=3)): 86 nM/h; stability in simulated intestinal and gastric fluids, plasma and PBS buffer [5]: high stability |
| [2H]C([2H])([2H])N(C(=O)Oc1c(N2CCN(C[C@H](O)CNC)C2=O)cc(C(F)(F)F)cc1C(F)(F)F)c1ccc(F)cc1 [RTx-315] | – | > 60 | – | 36.3 | – | 68.7 | – | – | – | – | – | – | – | – | – | – | – | – | – | < 23 | microsomal CLint at 1 μM [2, 16]: 39.1 µL/min/mg; half-life at 1 μM [3, 17]: 56.2 min; stability in simulated intestinal and gastric fluids, plasma and PBS buffer [5]: high stability |
